Here are results for five compounds from US20110281744A1, “METHOD OF IDENTIFYING COMPOUNDS THAT MODULATE REGULATION OF IRON RESPONSE ELEMENTS” (priority 2007, published 2011).

The test system of assay [1] is TfR. As to conditions: curcumin treatment; cited from earlier work.
For another assay, the system named is ferritin. The settings on record: curcumin treatment; cited from earlier work.
The next assay deals with IRP. The settings on record: curcumin treatment; cited from earlier work.
For a further assay, the system named is ferritin mRNA. The experiment in a line: Polysome analysis with northern blot: ferritin mRNA translation in treated cultured cells. The class given is cell-based. The settings on record: cells treated overnight with iron or iron plus desferal; FIG. 1B right panel. The method, then: (§1) FIG. 1A top panel is a graph showing polysome analysis with optical density as a function of percent sucrose. Total RNA is isolated from cultured cells by lysing the cells in polysome extraction buffer (15 mM Tris, pH 7.6, 0.3 M NaCl, 15 mM MgCl2 and 1% Triton X-100) containing 100 ng/ml cyclohexamide and 1 mg/ml heparin. The lysates are then layered onto a 10-50% sucrose gradient and centrifuged at 38,000 rpm for 2 hrs. The gradients are fractionated by monitoring UV absorbance at 254 nm.
(§2) FIG. 1A bottom panel is a northern blot showing Actin and Ferratin RNA. RNA was isolated from each fraction using RNeasy 96 Universal Tissue Kit (Qiagen) then loaded on a agarose gel and subjected to northern analysis with the appropriate probe. The high molecular weight fractions (6-12) represent those for which protein synthesis is occurring.
(§3) FIG. 1B are northern blots showing the indicated RNA. Cells were treated overnight with either iron oriron plus desferal to chelate iron and RNA was isolated and analyzed as described above.

The next assay relates to actin mRNA. As to the kind of experiment: Polysome analysis with northern blot: actin mRNA translation in treated cultured cells (control). The class given is cell-based. As to conditions: cells treated overnight with iron or iron plus desferal; FIG. 1B left panel. On the procedure: as §1, §2, §3
The subject of another assay is melanoma cells. As to conditions: cited from earlier work.
For assay [2], the system named is TfR. The settings on record: melanoma cells; cited from earlier work.
The subject of another assay is iron uptake. As to conditions: through reduction in IRE(+) DMT1 mRNA; cited from earlier work.
A further assay has as its system DMT1. As to conditions: cited from earlier work.

Read-outs that look alike come from different tables or passages of the source. Ends that are not written are not given here.

As for `COc1cc(/C=C/C(=O)CC(=O)/C=C/c2ccc(O)c(OC)c2)ccc1O` [curcumin, Curcumin], in the assay on TfR [1], the TfR level result is reported as “increase in TfR”. Further, the ferritin level result in the assay on ferritin is listed as “decrease in ferritin”. Besides, the IRP activation result in the assay on IRP was “increased IRP activation”.
For the compound `CC(=O)N(O)CCCCCNC(=O)CCC(=O)N(O)CCCCCNC(=O)CCC(=O)N(O)CCCCCN` [desferal], the “effect on ferritin translation (polysome distribution of ferritin mRNA)” value in the assay on ferritin mRNA is given as “inhibits translation”. Moreover, the “effect on translation of actin mRNA” value with actin mRNA is on record as “neither iron nor deseferal treatment had an effect”.
On the same counts, the results for `[Fe]` [iron] are “ferritin translation increases” and “neither iron nor deseferal treatment had an effect”.
For the compound `O=C1O[C@H]([C@@H](O)CO)C([O-])=C1O.[Na+]` [sodium ascorbate, Sodium ascorbate], in the assay on melanoma cells, the “cell death (apoptosis)” value is reported as “apoptosis” and the intracellular iron result is “reduced intracellular iron”. Moreover, the TfR level result with TfR [2] is “reduction in TfR”.
Consider “hepcidin (DTHFPICIFCCGCCHRSKCGMCCKT; ends and bridges not checked; cysteine pairing not given here; UniProt P81172 60-84, looked up) [a naturally occurring peptide]”, for which the iron uptake entry in the assay with iron uptake was “significantly reduce iron uptake”. Moreover, the “DMT1 protein isoforms with or without IRE” value in the assay with DMT1 was “reduces DMT1 protein isoforms containing the IRE, but not those lacking the IRE”.
